Results taken from article PMC9011347, “Small-Molecule Inhibitors Targeting Lipolysis in Human Adipocytes” (Journal of the American Chemical Society, 2022).

Assays:
Assay in all cases: TAG hydrolase assay, humanized mouse ATGL variants
Assay type in all cases: biochemical
[1] = molecular target: T1, mouse ATGL triple mutant I69F/C97F/T146G (Mus musculus, UniProt Q8BJ56, C97F/I69F/T146G); details: I69F/C97F/T146G triple mutant of mouse ATGL
T1 construct: host or cells: Expi293 cells, cell lysate
Text: (§1) According to our 3D model, aa T93 and C97 are located in close spatial proximity to I69. […] According to our 3D models, the overall topologies of the minimal active domains of mouse and human ATGL are identical, with S47 and D166 as active site residues in close spatial proximity (depicted as green sticks, Figure 6d,f). Residues S10–L178 (depicted in blue for mouse and pink for human) build a relatively compact half of the protein, while residues K179–L254 (depicted in gray) are less compact. The minimal active domain of both mouse and human ATGL is predicted to have a large, two-pronged fork cavity. The “left,” shallow prong is formed mainly by residues S10–L17 and S170–L254. The “right,” deeper prong is formed by five different helices (depicted in light blue and pink for mouse and human ATGL, respectively). The first helix is assembled by the N-terminal residues G16-E31. […] form three other helices and residues L137–F147 assemble a short helix with an adjacent unstructured stretch. In the orientation shown in Figure 6d,f, the active site is located in the middle part of the cavity connecting both prongs to the exterior. I69, C97, T146, and their human counterparts F69, F97, and G146, are all located in the right prong of the cavity. T(G)146 is located near the active site, while I(F)69 and C(F)97 are located on the opposite side of the cavity in close spatial proximity (Figure 6e,g). Our 3D homology models indicate that these residues change the widths and depths of the right prong, which can explain their crucial contribution to inhibitor selectivity and efficacy.
(§2) Figure 6 Identification of the molecular scaffold determining species selectivity. (a) Schematic view of mouse ATGL variants, which are sensitive to NG-497 inhibition. Humanized aa are indicated in red and nonidentical aa are indicated in dark blue. (b) Dose-dependent inhibition of the I69F/T146G double mutant, the I69F/T93I/C97F/T146G quadruple mutant, and human ATGL. (c) Dose-dependent inhibition of triple mutants I69F/T93I/T146G and I69F/C97F/T146G, and human ATGL. IC50 values are shown in the insets. […]

[2] = molecular target: T2, mouse ATGL I69F/T93I/C97F/T146G quadruple mutant (Mus musculus, UniProt Q8BJ56, C97F/I69F/T146G/T93I); details: I69F/T93I/C97F/T146G quadruple mutant of mouse ATGL
T2 construct: host or cells: Expi293 cells, cell lysate
Text: as §1, §2

[3] = molecular target: T3, mouse ATGL triple mutant I69F/T93I/T146G (Mus musculus, UniProt Q8BJ56, I69F/T146G/T93I); details: I69F/T93I/T146G triple mutant of mouse ATGL
T3 construct: host or cells: Expi293 cells, cell lysate
Text: as §1, §2

T2 sequence (Q8BJ56 whole entry I69F/T93I/C97F/T146G): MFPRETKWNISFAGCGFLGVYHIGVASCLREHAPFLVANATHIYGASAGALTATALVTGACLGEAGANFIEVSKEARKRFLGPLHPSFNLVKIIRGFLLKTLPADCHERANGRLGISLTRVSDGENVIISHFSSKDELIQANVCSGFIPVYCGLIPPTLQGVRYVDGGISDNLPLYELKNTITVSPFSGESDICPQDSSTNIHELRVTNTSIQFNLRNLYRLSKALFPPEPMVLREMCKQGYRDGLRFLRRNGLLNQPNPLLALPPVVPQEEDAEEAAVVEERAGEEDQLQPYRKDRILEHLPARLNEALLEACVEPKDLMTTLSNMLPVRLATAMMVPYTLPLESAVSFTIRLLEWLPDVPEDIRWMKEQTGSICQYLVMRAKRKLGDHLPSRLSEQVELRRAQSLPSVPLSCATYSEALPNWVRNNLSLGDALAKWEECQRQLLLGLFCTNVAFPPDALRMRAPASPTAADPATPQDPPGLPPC
T3 sequence (Q8BJ56 whole entry I69F/T93I/T146G): as the sequence (Q8BJ56 whole entry I69F/T93I/C97F/T146G) above, with F97C counted along it
T1 sequence (Q8BJ56 whole entry I69F/C97F/T146G): as the sequence (Q8BJ56 whole entry I69F/T93I/C97F/T146G) above, with I93T counted along it

Question: For CCOc1ccc(-c2cc(OC)cc(C(=O)OC(C)C)n2)cc1 [NG-497], which IC50 [1] is on record?
Answer: Its IC50 is 1000 nM.

Question: What about the IC50 [2] of the same compound?
Answer: The IC50 was 1600 ± 100 nM.

Question: What about the IC50 [3] of the same compound?
Answer: Its IC50 is 9300 nM.
